According to patent publication US6946480B2, “Glutaminyl based DPIV inhibitors” (priority 2002, dated 2005):
“Also recorded” adds a separate entry of the source.

Legend:
[1] = Plasma stability (half-life of inhibitory potency in human plasma); assay type: in vitro ADME
Protocol: In order to investigate the stability of glutaminyl pyrrolidine or glutaminyl thiazolidine in human plasma, the activity of DPIV in plasma was determined at a defined time. The average DPIV activity in human plasma was determined as 43.69 U/ml. In the working solution, the plasma was diluted in 0.9% NaCl to fix the DPIV activity level at 25 U/ml.
Plasma and glutaminyl pyrrolidine or glutaminyl thiazolidine in different concentrations (5*10^−5, 2.5*10^−5, 1.25*10^−5M in plasma) were incubated at 37° C. At defined time points samples were taken using a pipette roboter (Gilson 215, Liquid handler, Gilson) and transferred in a microtiter plate containing 5*10^−5M glycylprolylaminomethylcoumarine in 0.9% NaCl+015% Brij per well. After 6 min the reaction was stopped by addition of isoleucylthiazolidine (5*10^−5M in 0.9% NaCl solution).
Fluorescence measurement was performed against 0.9% NaCl in plasma (reference standard) using a plate reader (HTS7000plus, Applied Biosystems, Weiterstadt, Germany). The half-life of the inhibitory potency of glutaminyl pyrrolidine or glutaminyl thiazolidine was calculated by plotting the enzyme activity versus reaction time.

[2] = In vivo inactivation (degradation) after oral administration to Wistar rats, LC/MS; settings: LC/MS of plasma
Protocol: Glutaminyl thiazolidine was administered to Wistar rats orally as described in example 9.
After application of placebo or glutaminyl thiazolidine, arterial blood samples were taken at 2.5, 5, 7.5, 10, 15, 20, 40, 60 and 120 min from the carotid catheter of the conscious unrestrained rats to determine the formation of degradation products of glutaminyl thiazolidine.
For analysis, simple solid phase extraction procedure on C18 cartridges was used to isolate the compounds of interest from the plasma. The extracts were analysed using reversed-phase liquid chromatography on Lichrospher 60 RP Select B column hyphenated with tandem mass spectrometry operating in the APCl positive mode. An internal standard method was used for quantification.

[3] = listed as Glutaminyl thiazolidine

Compound: NC(=O)CCC(N)C(=O)N1CCSC1 (stereo not drawn) [glutaminyl thiazolidine]
- half-life of the inhibitory potency in human plasma ([1]; 37° C., 5*10^−5, 2.5*10^−5, 1.25*10^−5M): no half-time could be determined
- stability in human plasma ([1]; over 22 hours): stable in human plasma over 22 hours
- degradation in vivo [2]: a degradation of the compound was found
- degradation product found in vivo [2]: pyroglutaminyl thiazolidine; also recorded: pyroglutamyl thiazolidine
- degradation in vivo [2, 3]: degraded
- degradation product found in vivo [2, 3]: pyroglutaminyl thiazolidine
